Columns and labels:
Cannabinoid receptor 1 = Cannabinoid receptor 1 (Homo sapiens, UniProt P21554); assay type: cell membranes, Membrane; conditions: chem-1; also: in other assays of this panel Not Active means under 50% inhibition at 10 µM
[1] = target: Beta-2 adrenergic receptor (Homo sapiens, UniProt P07550); experiment: DRUGMATRIX: Adrenergic beta2 radioligand binding (ligand: [3H] CGP-12177); assay type: cell membranes, Membrane; conditions: cho; Not Active = under 50% inhibition at 10 µM
[2] = target: Mitogen-activated protein kinase 3 (Homo sapiens, UniProt P27361); experiment: DRUGMATRIX: Protein Serine/Threonine Kinase, ERK1 enzyme inhibition (substrate: Myelin Basic Protein); parameters: species or system Escherichia coli; conditions: Not Active = under 50% inhibition at 10 µM
Cytochrome P450 2A6 = target: T1, Cytochrome P450 2A6 (Homo sapiens, UniProt P11509); conditions: bti-tn-5b1-4; also: in other assays of this panel Not Active means under 50% inhibition at 10 µM
T1 sequence (P11509 whole entry): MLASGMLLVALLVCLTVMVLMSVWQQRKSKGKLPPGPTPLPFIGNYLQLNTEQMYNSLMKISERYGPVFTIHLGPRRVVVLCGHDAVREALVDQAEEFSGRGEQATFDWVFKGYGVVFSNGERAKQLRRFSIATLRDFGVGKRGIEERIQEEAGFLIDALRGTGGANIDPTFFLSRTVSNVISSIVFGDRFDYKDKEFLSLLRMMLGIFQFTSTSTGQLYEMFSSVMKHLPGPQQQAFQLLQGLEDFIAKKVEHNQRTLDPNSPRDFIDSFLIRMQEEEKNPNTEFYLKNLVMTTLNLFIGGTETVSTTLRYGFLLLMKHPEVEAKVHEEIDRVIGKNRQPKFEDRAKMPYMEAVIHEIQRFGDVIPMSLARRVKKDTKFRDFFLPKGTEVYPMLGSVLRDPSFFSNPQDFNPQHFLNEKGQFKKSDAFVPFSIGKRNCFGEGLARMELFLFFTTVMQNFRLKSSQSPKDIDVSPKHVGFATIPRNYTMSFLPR

[3] = DRUGMATRIX: Platelet-Derived Growth Factor (PDGF) radioligand binding (ligand: [125I] PDGF); assay type: cell-based; conditions: nih3t3; Not Active = under 50% inhibition at 10 µM
[4] = target: T2, Alpha-2C adrenergic receptor (Homo sapiens, UniProt P18825); experiment: DRUGMATRIX: Adrenergic Alpha-2C radioligand binding (ligand: [3H] MK-912); assay type: cell membranes, Sf9, Membrane; conditions: sf9
T2 sequence (P18825 whole entry): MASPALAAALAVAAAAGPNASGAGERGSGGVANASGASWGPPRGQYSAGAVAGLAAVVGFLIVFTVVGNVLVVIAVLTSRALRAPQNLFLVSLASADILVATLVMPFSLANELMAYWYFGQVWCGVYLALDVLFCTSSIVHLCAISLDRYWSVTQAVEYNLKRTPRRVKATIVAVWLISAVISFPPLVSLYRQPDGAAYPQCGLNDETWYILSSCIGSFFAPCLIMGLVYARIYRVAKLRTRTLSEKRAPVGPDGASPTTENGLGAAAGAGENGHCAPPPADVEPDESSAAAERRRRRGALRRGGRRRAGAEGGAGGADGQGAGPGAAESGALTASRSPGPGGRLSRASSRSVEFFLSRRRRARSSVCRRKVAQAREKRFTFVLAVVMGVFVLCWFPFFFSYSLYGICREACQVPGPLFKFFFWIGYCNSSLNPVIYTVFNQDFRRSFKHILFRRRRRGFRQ

[5] = target: T3, Alpha-1B adrenergic receptor (Rattus norvegicus, UniProt P15823); experiment: DRUGMATRIX: Alpha-1B adrenergic receptor radioligand binding (ligand: prazosin); assay type: cell membranes, Wistar, Liver, Membrane; conditions: Not Active = under 50% inhibition at 10 µM
T3 sequence (P15823 whole entry): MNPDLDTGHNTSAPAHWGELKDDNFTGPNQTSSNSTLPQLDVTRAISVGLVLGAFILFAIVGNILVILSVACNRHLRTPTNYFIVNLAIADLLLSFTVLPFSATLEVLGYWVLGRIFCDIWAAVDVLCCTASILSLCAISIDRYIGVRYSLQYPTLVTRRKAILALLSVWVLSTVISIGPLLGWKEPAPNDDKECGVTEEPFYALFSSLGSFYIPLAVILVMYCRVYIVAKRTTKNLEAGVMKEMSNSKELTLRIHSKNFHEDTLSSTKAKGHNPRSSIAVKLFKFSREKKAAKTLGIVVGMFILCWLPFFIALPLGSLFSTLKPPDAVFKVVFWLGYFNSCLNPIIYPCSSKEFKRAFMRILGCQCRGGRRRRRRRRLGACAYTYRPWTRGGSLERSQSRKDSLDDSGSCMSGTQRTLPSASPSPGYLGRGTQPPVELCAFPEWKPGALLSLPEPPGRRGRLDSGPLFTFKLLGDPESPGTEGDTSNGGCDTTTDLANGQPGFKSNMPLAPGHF

Cytochrome P450 2E1 = Cytochrome P450 2E1 (Homo sapiens, UniProt P05181); conditions: bti-tn-5b1-4; also: in other assays of this panel Not Active means under 50% inhibition at 10 µM
[6] = target: T4, C-C chemokine receptor type 4 (Homo sapiens, UniProt P51679); assay type: cell membranes, Membrane; conditions: chem-1; also: in other assays of this panel Not Active means under 50% inhibition at 10 µM
T4 sequence (P51679 whole entry): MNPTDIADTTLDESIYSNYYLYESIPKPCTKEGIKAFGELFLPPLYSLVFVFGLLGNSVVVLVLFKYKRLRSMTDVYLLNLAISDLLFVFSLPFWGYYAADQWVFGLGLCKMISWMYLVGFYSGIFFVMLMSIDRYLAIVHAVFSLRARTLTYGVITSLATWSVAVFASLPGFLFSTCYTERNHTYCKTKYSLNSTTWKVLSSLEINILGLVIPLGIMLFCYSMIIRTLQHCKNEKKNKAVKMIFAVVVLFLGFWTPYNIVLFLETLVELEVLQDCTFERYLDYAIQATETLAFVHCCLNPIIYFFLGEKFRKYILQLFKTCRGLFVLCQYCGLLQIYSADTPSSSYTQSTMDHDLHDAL

[7] = target: T5, Type-2 angiotensin II receptor (Homo sapiens, UniProt P50052); assay type: cell-based; conditions: cho-k1; also: in other assays of this panel Not Active means under 50% inhibition at 10 µM
T5 sequence (P50052 whole entry): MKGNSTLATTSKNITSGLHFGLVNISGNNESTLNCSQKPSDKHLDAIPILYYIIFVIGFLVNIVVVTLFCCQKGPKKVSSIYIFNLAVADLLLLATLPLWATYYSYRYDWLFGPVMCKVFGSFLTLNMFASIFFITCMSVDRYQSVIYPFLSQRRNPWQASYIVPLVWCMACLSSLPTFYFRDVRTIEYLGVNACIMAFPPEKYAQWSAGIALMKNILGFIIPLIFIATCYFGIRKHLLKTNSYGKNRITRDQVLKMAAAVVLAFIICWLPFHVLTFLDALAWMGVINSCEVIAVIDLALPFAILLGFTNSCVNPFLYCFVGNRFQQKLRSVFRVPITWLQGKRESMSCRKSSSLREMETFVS

[8] = DRUGMATRIX: Sodium/nucleoside co-transporter radioligand binding (ligand: nitrobenzylthioinosine); assay type: cell membranes, Cavia porcellus, Dunkin-Hartley, Cerebral cortex, Membrane; conditions: Not Active = under 50% inhibition at 10 µM
[9] = DRUGMATRIX: beta-Lactamase enzyme inhibition (substrate: Nitrocefin); parameters: species or system Bacillus cereus; conditions: Not Active = under 50% inhibition at 10 µM

Cannabinoid receptor 1, sequence (P21554 whole entry): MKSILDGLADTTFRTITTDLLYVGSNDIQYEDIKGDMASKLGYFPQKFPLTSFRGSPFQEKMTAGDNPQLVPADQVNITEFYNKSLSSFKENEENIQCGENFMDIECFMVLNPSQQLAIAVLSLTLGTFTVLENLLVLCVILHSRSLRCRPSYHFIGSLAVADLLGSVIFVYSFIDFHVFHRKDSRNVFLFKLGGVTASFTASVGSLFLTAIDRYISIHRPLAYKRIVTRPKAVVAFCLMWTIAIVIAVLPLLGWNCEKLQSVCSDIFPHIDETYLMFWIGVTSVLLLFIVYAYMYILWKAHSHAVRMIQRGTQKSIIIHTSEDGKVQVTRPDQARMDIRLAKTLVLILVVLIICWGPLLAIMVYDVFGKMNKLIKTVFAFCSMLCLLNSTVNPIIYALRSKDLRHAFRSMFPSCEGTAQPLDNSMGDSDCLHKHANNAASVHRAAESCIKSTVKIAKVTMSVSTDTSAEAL
Beta-2 adrenergic receptor, sequence (P07550 whole entry): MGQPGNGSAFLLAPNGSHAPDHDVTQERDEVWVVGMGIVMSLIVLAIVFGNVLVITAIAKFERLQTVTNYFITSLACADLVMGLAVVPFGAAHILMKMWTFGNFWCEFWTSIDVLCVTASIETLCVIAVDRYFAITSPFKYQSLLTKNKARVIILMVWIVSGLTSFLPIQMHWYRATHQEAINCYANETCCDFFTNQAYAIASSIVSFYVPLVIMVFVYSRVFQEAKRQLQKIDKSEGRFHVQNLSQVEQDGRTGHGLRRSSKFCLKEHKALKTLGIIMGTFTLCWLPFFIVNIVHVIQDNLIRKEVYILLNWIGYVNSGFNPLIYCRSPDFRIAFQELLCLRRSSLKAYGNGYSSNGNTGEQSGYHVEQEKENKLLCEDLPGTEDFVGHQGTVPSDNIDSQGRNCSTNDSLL
Cytochrome P450 2E1, sequence (P05181 whole entry): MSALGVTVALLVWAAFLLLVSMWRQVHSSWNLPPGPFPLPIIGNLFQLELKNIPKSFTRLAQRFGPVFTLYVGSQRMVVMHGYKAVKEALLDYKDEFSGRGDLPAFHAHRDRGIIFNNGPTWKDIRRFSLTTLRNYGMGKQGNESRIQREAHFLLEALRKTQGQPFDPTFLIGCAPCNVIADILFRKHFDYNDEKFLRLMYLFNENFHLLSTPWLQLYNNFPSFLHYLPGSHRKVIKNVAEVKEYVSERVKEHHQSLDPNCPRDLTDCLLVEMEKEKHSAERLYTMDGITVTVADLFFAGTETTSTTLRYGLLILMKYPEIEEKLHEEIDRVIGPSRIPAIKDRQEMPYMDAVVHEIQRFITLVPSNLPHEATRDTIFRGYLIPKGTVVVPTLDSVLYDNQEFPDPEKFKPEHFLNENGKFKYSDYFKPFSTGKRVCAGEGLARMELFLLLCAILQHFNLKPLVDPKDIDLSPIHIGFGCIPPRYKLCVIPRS
Mitogen-activated protein kinase 3, sequence (P27361 whole entry): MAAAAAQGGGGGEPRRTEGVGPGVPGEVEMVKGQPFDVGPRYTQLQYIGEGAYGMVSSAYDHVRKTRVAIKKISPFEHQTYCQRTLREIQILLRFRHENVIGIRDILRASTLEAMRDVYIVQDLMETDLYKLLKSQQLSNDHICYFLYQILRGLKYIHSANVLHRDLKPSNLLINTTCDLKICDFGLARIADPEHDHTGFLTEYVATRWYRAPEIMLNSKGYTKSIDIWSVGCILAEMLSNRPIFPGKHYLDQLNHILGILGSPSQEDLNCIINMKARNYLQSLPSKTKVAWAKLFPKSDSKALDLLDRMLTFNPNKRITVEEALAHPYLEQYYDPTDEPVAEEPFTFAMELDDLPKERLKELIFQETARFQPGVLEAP

NC(CO)(CO)CO [TROMETHAMINE]
IC50 (Cannabinoid receptor 1): Not Active | IC50 [1]: Not Active | IC50 [2]: Not Active | IC50 (Cytochrome P450 2A6): Not Active | Ki (Cytochrome P450 2A6): Not Active | IC50 [3]: Not Active | Ki [3]: Not Active | IC50 [4]: Not Active | IC50 [5]: Not Active | IC50 (Cytochrome P450 2E1): Not Active | Ki (Cytochrome P450 2E1): Not Active | IC50 [6]: Not Active | IC50 [7]: Not Active | IC50 [8]: Not Active | Ki [8]: Not Active | IC50 [9]: Not Active | Ki [9]: Not Active

Cc1ccc(C(=O)C(C)CN2CCCCC2)cc1 (stereo not drawn) [TOLPERISONE]
IC50 (Cannabinoid receptor 1): Not Active | IC50 [1]: Not Active | IC50 [2]: Not Active | IC50 (Cytochrome P450 2A6): Not Active | Ki (Cytochrome P450 2A6): Not Active | IC50 [3]: Not Active | Ki [3]: Not Active | IC50 [4]: Not Active | IC50 [5]: Not Active | IC50 (Cytochrome P450 2E1): Not Active | Ki (Cytochrome P450 2E1): Not Active | IC50 [6]: Not Active | IC50 [7]: Not Active | IC50 [8]: Not Active | Ki [8]: Not Active | IC50 [9]: Not Active | Ki [9]: Not Active

CN(N=O)C(=O)N[C@@H](C=O)[C@@H](O)[C@H](O)[C@H](O)CO [STREPTOZOCIN]
IC50 (Cannabinoid receptor 1): Not Active | IC50 [1]: Not Active | IC50 [2]: Not Active | IC50 (Cytochrome P450 2A6): Not Active | Ki (Cytochrome P450 2A6): Not Active | IC50 [3]: Not Active | Ki [3]: Not Active | IC50 [4]: Not Active | IC50 [5]: Not Active | IC50 (Cytochrome P450 2E1): Not Active | Ki (Cytochrome P450 2E1): Not Active | IC50 [6]: Not Active | IC50 [7]: Not Active | IC50 [8]: Not Active | Ki [8]: Not Active | IC50 [9]: Not Active | Ki [9]: Not Active

NC(=O)c1ncn([C@@H]2O[C@H](CO)[C@@H](O)[C@H]2O)n1 [RIBAVIRIN]
IC50 (Cannabinoid receptor 1): Not Active | IC50 [1]: Not Active | IC50 [2]: Not Active | IC50 (Cytochrome P450 2A6): Not Active | Ki (Cytochrome P450 2A6): Not Active | IC50 [3]: Not Active | Ki [3]: Not Active | IC50 [4]: Not Active | IC50 [5]: Not Active | IC50 (Cytochrome P450 2E1): Not Active | Ki (Cytochrome P450 2E1): Not Active | IC50 [6]: Not Active | IC50 [7]: Not Active | IC50 [8]: Not Active | Ki [8]: Not Active | IC50 [9]: Not Active | Ki [9]: Not Active

Oc1c(I)cc(I)c2cccnc12 [IODOQUINOL]
IC50 (Cannabinoid receptor 1): Not Active | IC50 [1]: Not Active | IC50 ([2]; read-out: IC50): 5.26 µM | IC50 (Cytochrome P450 2A6): Not Active | Ki (Cytochrome P450 2A6): Not Active | IC50 [3]: Not Active | Ki [3]: Not Active | IC50 [4]: Not Active | IC50 [5]: Not Active | IC50 (Cytochrome P450 2E1): Not Active | Ki (Cytochrome P450 2E1): Not Active | IC50 [6]: Not Active | IC50 [7]: Not Active | IC50 [8]: Not Active | Ki [8]: Not Active | IC50 [9]: Not Active | Ki [9]: Not Active

CN1[C@@H]2CC[C@H]1C[C@@H](OC(=O)c1c[nH]c3ccccc13)C2 [TROPISETRON]
IC50 (Cannabinoid receptor 1): Not Active | IC50 [1]: Not Active | IC50 [2]: Not Active | IC50 (Cytochrome P450 2A6): Not Active | Ki (Cytochrome P450 2A6): Not Active | IC50 [3]: Not Active | Ki [3]: Not Active | IC50 [4]: Not Active | IC50 [5]: Not Active | IC50 (Cytochrome P450 2E1): Not Active | Ki (Cytochrome P450 2E1): Not Active | IC50 [6]: Not Active | IC50 [7]: Not Active | IC50 [8]: Not Active | Ki [8]: Not Active | IC50 [9]: Not Active | Ki [9]: Not Active

NC(=O)c1ccccc1O [SALICYLAMIDE]
IC50 (Cannabinoid receptor 1): Not Active | IC50 [1]: Not Active | IC50 [2]: Not Active | IC50 (Cytochrome P450 2A6): Not Active | Ki (Cytochrome P450 2A6): Not Active | IC50 [3]: Not Active | Ki [3]: Not Active | IC50 [4]: Not Active | IC50 [5]: Not Active | IC50 (Cytochrome P450 2E1): Not Active | Ki (Cytochrome P450 2E1): Not Active | IC50 [6]: Not Active | IC50 [7]: Not Active | IC50 [8]: Not Active | Ki [8]: Not Active | IC50 [9]: Not Active | Ki [9]: Not Active

O=[N+]([O-])c1cc([As](=O)(O)O)ccc1O [ROXARSONE]
IC50 (Cannabinoid receptor 1): Not Active | Ki (Cannabinoid receptor 1): Not Active | IC50 [1]: Not Active | Ki [1]: Not Active | IC50 [2]: Not Active | Ki [2]: Not Active | IC50 (Cytochrome P450 2A6): Not Active | Ki (Cytochrome P450 2A6): Not Active | IC50 [3]: Not Active | Ki [3]: Not Active | IC50 [4]: Not Active | Ki [4]: Not Active | IC50 [5]: Not Active | Ki [5]: Not Active | IC50 (Cytochrome P450 2E1): Not Active | Ki (Cytochrome P450 2E1): Not Active | IC50 [6]: Not Active | Ki [6]: Not Active | IC50 [7]: Not Active | Ki [7]: Not Active | IC50 [8]: Not Active | Ki [8]: Not Active | IC50 [9]: Not Active | Ki [9]: Not Active

— ChEMBL document CHEMBL1909046, “DrugMatrix in vitro pharmacology data”
